In the first test the target is MRGPRX4 (Homo sapiens, UniProt Q96LA9). Kind of test: MRGPR X4 antagonist activity, IP-One Gq HTRF assay in stably transfected HEK cells (versus agonist bilirubin, deoxycholic acid, conjugated bilirubin, urobilin, obeticholic acid or BAR502). In kind it is cell-based. The arrangement: expressed in transfected cells; host or cells: HEK cells, stably transfected. To be noted: versus 10 μM Bilirubin agonist; HEK cells expressing human MRGPR X4; read-out: MRGPR4 Antagonist Activity. The procedure: HEK cells stably transfected to express human MRGPR X4 were maintained in an incubator at 37° C. with 5% CO2 and grown in DMEM media with 10% fetal bovine serum (FBS) and 1% each of sodium pyruvate, Glutamax, penicillin/streptomycin, and Geneticin. HEK cells stably transfected to express mouse MRGPR A1 were maintained in the same incubator and grown in DMEM media with 10% FBS, 1% each of sodium pyruvate, Glutamax, penicillin/streptomycin, Geneticin, and 2.2 mg/mL Hygromycin.
MRGPRX4, sequence (Q96LA9 whole entry): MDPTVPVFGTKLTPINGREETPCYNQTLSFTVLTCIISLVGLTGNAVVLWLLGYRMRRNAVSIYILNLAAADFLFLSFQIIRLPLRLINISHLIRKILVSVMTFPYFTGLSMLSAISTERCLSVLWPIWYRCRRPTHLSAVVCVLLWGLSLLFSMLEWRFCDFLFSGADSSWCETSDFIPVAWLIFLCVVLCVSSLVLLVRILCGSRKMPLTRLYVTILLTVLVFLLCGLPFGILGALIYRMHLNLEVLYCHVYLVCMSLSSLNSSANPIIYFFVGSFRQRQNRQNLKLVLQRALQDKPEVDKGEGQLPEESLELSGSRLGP
Cells were plated in a 384-well assay plate at 20,000 cells per well in 12 μL of Opti-MEM and kept in an incubator overnight. On the day of the assay, compounds solubilized at 10 mM in DMSO were added as a 10-point curve (10 uM final top concentration with 1:3 serial dilutions) using a Tecan D300E digital dispenser. […] Final concentrations of DMSO were kept consistent across the plate. Plates were incubated in the dark for 1 h at 37° C. and then for 30 minutes at room temperature. IP-1 standards and HTRF detection reagents were added according to the IP-One—Gq Kit purchased from Cisbio (part number 62IPAPEJ) and incubated in the dark for 1 h at room temperature. The plate was read on a Molecular Devices SpectraMax iD5 plate reader. The HTRF ratio was calculated from the raw data and graphed using GraphPad Prism to calculate an IC50 value for each compound.
For the molecule `Cc1cc(CNc2ccc(C(F)(F)F)cc2Cl)nc(C(=O)O)c1` [Compound 57-1, 6-(((2-chloro-4-(trifluoromethyl)phenyl)amino)methyl)-4-methylpicolinic acid], the IC50 was less than 0.1 µM.
On to `O=C(O)c1cccc(COc2ccc(OC(F)(F)F)cc2Cl)c1` [Compound 1-103], for which the IC50 was less than 0.1 µM.
Consider `COC1CCN(C(=O)c2cccc(COc3ccc(C(F)(F)F)cc3Cl)c2)CC1` [Compound 52-14], for which the IC50 lay in the range of 1 to 2.5 µM.
Same read-out and setting: the result for `N#Cc1cc(COc2ccc(C(F)(F)F)cc2Cl)cc(C(=O)O)c1` [Compound 32-1, 3-((2-chloro-4-(trifluoromethyl)phenoxy)methyl)-5-cyanobenzoic acid] reads less than 0.1 µM; that for `NC(=O)CNC(=O)c1cccc(COc2ccc(C(F)(F)F)cc2Cl)c1` [Compound 52-22], 0.1 to 0.5 µM.
On the same count and under the same terms, under `O=C(O)c1ccc(F)c(COc2ccc(Cl)cc2Cl)c1` [Compound 4-2] stands 1 to 2.5 µM; under `O=C(O)c1cccc(COc2ccc(Cl)cc2C(F)(F)F)c1F` [Compound 1-62], less than 0.1 µM.
Still for that read-out and setting: the result for `O=C(O)c1cc(COc2ccc(C(F)(F)F)c(Cl)c2)cc(C(F)(F)F)c1` [Compound 4-16] reads 0.1 to 0.5 µM.
In the case of `O=C(O)c1cc(COc2ccc(C(F)(F)F)cc2Cl)cc(-c2ccccc2)c1` [Compound 8-4], the IC50 lay in the range of 0.5 to 1 µM.
The same measure, in the same setting: under `O=C(O)c1cccc(COc2ccc(Cl)c(Cl)c2Cl)c1F` [Compound 1-124] stands less than 0.1 µM.
The same measure, in the same setting: the result for `Cc1cc(-c2ccccc2)ccc1OCc1cccc(C(=O)O)c1` [Compound 1-51] reads 1 to 2.5 µM; that for `COC(=O)c1cccc(COc2ccc3scnc3c2)c1` [Compound 1-8], greater than 2.5 µM.
On the same count and under the same terms, the result for `O=C(O)c1cccc(CNc2ccc(C(F)(F)F)cc2Cl)c1` [Compound 12-4] reads less than 0.1 µM; that for `Fc1c(COc2ccc(C(F)(F)F)cc2Cl)cccc1-c1nnn[nH]1` [Compound 17-15], less than 0.1 µM; that for `Cc1ccc(OCc2cccc(C(=O)O)c2)c(Cl)c1Cl` [Compound 1-143], less than 0.1 µM.
Regarding `COC(=O)c1cc(COc2ccc(Cl)cc2Cl)on1` [Compound 1-15], the IC50 lay within 1 to 2.5 µM.
Regarding `O=C(O)c1cc(COc2ccc(Cl)cc2Cl)ccc1Cl` [Compound 1-44], the IC50 was in the range of 0.5 to 1 µM.
Still for that read-out and setting: the result for `COc1cc(COc2ccc(C(F)(F)F)cc2Cl)cc(C(=O)O)c1` [Compound 2-2] reads less than 0.1 µM; that for `O=C(O)c1cccc(COc2ccc3c(c2)OC(F)(F)O3)c1` [Compound 1-61], 0.5 to 1 µM.
Take `O=C(O)c1cccc(COc2ccc(Br)cc2)c1` [Compound 1-110]: the IC50 was 0.1 to 0.5 µM.
On the same count and under the same terms, the result for `CC(C)(NC(=O)c1cccc(COc2ccc(C(F)(F)F)cc2Cl)c1)C(=O)O` [Compound 54-3] reads 0.1 to 0.5 µM; that for `FC(F)(F)c1ccc(OCc2cccc(-c3nnn[nH]3)c2)cc1Cl` [Compound 17-2], less than 0.1 µM.
Still for that read-out and setting: under `O=C(O)c1cccc(COc2ccc(Cl)c(F)c2)c1` [Compound 1-59] stands less than 0.1 µM.
In the case of `Cc1cc(Cl)cc(Cl)c1OCc1cccc(C(=O)O)c1` [Compound 1-50], the IC50 lay in the range of 1 to 2.5 µM.
The same measure, in the same setting: the result for `O=C(O)c1cccc(COc2ccc(OC(F)(F)F)cc2Cl)n1` [Compound 1-125] reads less than 0.1 µM; that for `O=C(O)c1cc(F)cc(COc2ccc(Cl)c(Cl)c2Cl)c1` [Compound 1-123], less than 0.1 µM; that for `O=C(NCS(=O)(=O)O)c1ccc(COc2ccc(C(F)(F)F)cc2Cl)cc1` [Compound 52-3], 0.1 to 0.5 µM.
The same measure, in the same setting: under `O=C(O)c1cccc(COc2ccc(Oc3ccccc3)cc2)c1` [Compound 1-52] stands greater than 2.5 µM.
The same measure, in the same setting: the result for `O=C(O)c1cccc(COc2ccc(Cl)cc2Cl)c1Cl` [Compound 4-9] reads less than 0.1 µM.
Take `COc1cc(COc2ccc(Cl)cc2Cl)cc(C(=O)O)c1` [Compound 4-5]: the IC50 was less than 0.1 µM.
On the same count and under the same terms, the result for `COc1ccc(C(=O)O)cc1COc1ccc(Cl)cc1Cl` [Compound 1-27] reads greater than 2.5 µM.
On the same count and under the same terms, under `O=C(O)c1cccc(Oc2ccc(Cl)cc2Cl)c1` [Compound 16-1, 3-(2,4-dichlorophenoxy)benzoic acid] stands 1 to 2.5 µM.
Same read-out and setting: the result for `Fc1ccc(OCc2cccc(-c3nnn[nH]3)c2)c(Cl)c1` [Compound 17-7] reads less than 0.1 µM; that for `O=C(O)c1cc(COc2ccc(C(F)(F)F)cc2Cl)ccc1Cl` [Compound 1-83], 0.1 to 0.5 µM; that for `O=C(O)c1cc(Cl)cc(COc2ccc(C(F)(F)F)cc2Cl)c1` [Compound 1-82], less than 0.1 µM.
With `OCc1cccc(COc2ccc(Cl)cc2Cl)c1` [Compound 14-1, (3-((2,4-dichlorophenoxy)methyl)phenyl)methanol], the IC50 was 1 to 2.5 µM.
The same measure, in the same setting: the result for `CC(=O)c1ccc(OCc2cccc(C(=O)O)c2)c(Cl)c1` [Compound 1-126] reads 1 to 2.5 µM; that for `O=C(c1ccc(COc2ccc(C(F)(F)F)cc2Cl)cc1)N1CC2(COC2)C1` [Compound 52-2], greater than 2.5 µM.
Still for that read-out and setting: under `CNC(=O)c1ccc(OCc2cccc(C(=O)O)c2)cc1` [Compound 1-152] stands 1 to 2.5 µM.
Consider `NC(=O)CC[C@H](NC(=O)c1cccc(COc2ccc(C(F)(F)F)cc2Cl)c1)C(=O)O` [Compound 55-3], for which the IC50 is 0.1 to 0.5 µM.
`O=C(NC1CCCC(O)C1)c1cccc(COc2ccc(C(F)(F)F)cc2Cl)c1` (stereo not shown) [Compound 52-19]: the IC50 was 0.5 to 1 µM.
In the case of `COC(=O)c1cccc(COc2ccc3ccccc3c2)n1` [Compound 1-12], the IC50 is less than 0.1 µM.
In the case of `O=C(O)c1cccc(COc2cccc(C(F)(F)F)c2)c1` [Compound 1-140], the IC50 was 1 to 2.5 µM.
As for `COc1cc(OCc2cccc(C(=O)O)c2)ccc1C(F)(F)F` [Compound 1-67], the IC50 is 0.5 to 1 µM.
The same measure, in the same setting: the result for `O=C(O)c1cc(C2CC2)cc(COc2ccc(C(F)(F)F)cc2Cl)n1` [Compound 8-3] reads less than 0.1 µM; that for `O=C(O)c1cccc(COc2ccc(-n3cccc3)cc2Cl)c1F` [Compound 4-25], 0.1 to 0.5 µM; that for `O=C(O)c1cccc(COc2ccc(Cl)cc2)n1` [Compound 1-36], 0.5 to 1 µM.
For `O=C(Nc1ccccc1)c1cccc(COc2ccc(C(F)(F)F)cc2Cl)c1` [Compound 52-11], the IC50 lay in the range of 0.1 to 0.5 µM.
Still for that read-out and setting: under `O=C(O)c1cccc(COc2ccc(OC(F)(F)F)cc2Cl)c1F` [Compound 4-13] stands less than 0.1 µM; under `O=C(O)c1cccc(COc2ccc(C(F)(F)F)c(Cl)c2)n1` [Compound 1-133], less than 0.1 µM; under `COc1ccccc1OCc1cccc(C(=O)O)c1` [Compound 1-37], 0.1 to 0.5 µM.
The same measure, in the same setting: under `Fc1ccc(COc2ccc(C(F)(F)F)cc2Cl)cc1-c1nnn[nH]1` [Compound 17-16] stands less than 0.1 µM; under `N#Cc1cc(COc2ccc(C(F)(F)F)cc2Cl)nc(C(=O)O)c1` [Compound 43-1, 6-((2-chloro-4-(trifluoromethyl)phenoxy)methyl)-4-cyano-pyridine-2-carboxylic acid], less than 0.1 µM; under `O=C(O)c1cccc(COc2cccc(-c3ccc(F)cc3)c2)c1` [Compound 1-69], 0.5 to 1 µM.
As to `Cc1cc(-n2cccc2)ccc1OCc1cccc(C(=O)O)c1F` [Compound 4-27], the IC50 was 0.1 to 0.5 µM.
In the case of `FC(F)(F)c1ccc(OCc2cccc(-c3ncc[nH]3)c2)c(Cl)c1` [Compound 46-1, 2-(3-((2-chloro-4-(trifluoromethyl)phenoxy)methyl)phenyl)-1H-imidazole], the IC50 lay within 0.1 to 0.5 µM.
Consider `N#Cc1cccc(COc2ccc(C(F)(F)F)cc2Cl)c1` [Compound 17-1, 3-((2-chloro-4-(trifluoromethyl)phenoxy)methyl)benzonitrile], for which the IC50 is 0.1 to 0.5 µM.
`O=C(O)c1cccc(COc2ccc(OC(F)F)cc2)c1` [Compound 1-135]: the IC50 was in the range of 0.1 to 0.5 µM.
On the same count and under the same terms, under `Cc1cc(COc2ccc(OC(F)(F)F)cc2Cl)cc(C(=O)O)c1` [Compound 4-14] stands less than 0.1 µM; under `Cc1cc(COc2ccc(Cl)cc2Cl)cc(C(=O)O)c1` [Compound 4-7], less than 0.1 µM; under `Cc1cc(C(F)(F)F)ccc1OCc1cc(F)cc(C(=O)O)c1` [Compound 9-2], less than 0.1 µM.
Same read-out and setting: the result for `O=S(=O)(O)c1cccc(COc2ccc(C(F)(F)F)cc2Cl)c1` [Compound 40-1, 3-((2-chloro-4-(trifluoromethyl)phenoxy)methyl)benzenesulfonic acid] reads 0.5 to 1 µM; that for `N#Cc1ccc(COc2ccc(Cl)cc2Cl)cc1C(=O)O` [Compound 5-2], 1 to 2.5 µM; that for `Cc1cc(C(C)(C)C)ccc1OCc1cccc(C(=O)O)c1` [Compound 1-108], 1 to 2.5 µM.
As for `O=C(O)c1cccc(COc2cccc(C(F)(F)F)c2Cl)c1` [Compound 1-79], the IC50 was in the range of 0.1 to 0.5 µM.

Staying with this test, now noted: versus 10 μM Bilirubin agonist; read-out: IC50 (Bilirubin agonist).
Regarding `N#Cc1cc(COc2ccc(C(F)(F)F)cc2Cl)cc(C(=O)O)c1` [Compound 32-1, 3-((2-chloro-4-(trifluoromethyl)phenoxy)methyl)-5-cyanobenzoic acid], the IC50 amounted to 0.006 µM.

Still in this test, the particulars now being: versus 20 μM deoxycholic acid; read-out: IC50 (Deoxycholic Acid agonist).
As for `N#Cc1cc(COc2ccc(C(F)(F)F)cc2Cl)cc(C(=O)O)c1` [Compound 32-1, 3-((2-chloro-4-(trifluoromethyl)phenoxy)methyl)-5-cyanobenzoic acid], the IC50 is 0.01 µM.

The same test, now with this note: versus 20 μM obeticholic acid; read-out: IC50 (Obeticholic Acid Agonist).
Take `N#Cc1cc(COc2ccc(C(F)(F)F)cc2Cl)cc(C(=O)O)c1` [Compound 32-1, 3-((2-chloro-4-(trifluoromethyl)phenoxy)methyl)-5-cyanobenzoic acid]: the IC50 was found to be 0.003 µM.

The test is the same for the next values; noted with them: versus 50 μM urobilin; read-out: IC50 (Urobilin Agonist).
Turning to `N#Cc1cc(COc2ccc(C(F)(F)F)cc2Cl)cc(C(=O)O)c1` [Compound 32-1, 3-((2-chloro-4-(trifluoromethyl)phenoxy)methyl)-5-cyanobenzoic acid], the IC50 amounted to 0.008 µM.

Staying with this test, now noted: versus 100 μM conjugated bilirubin; read-out: IC50 (Conjugated Bilirubin Agonist).
On to `N#Cc1cc(COc2ccc(C(F)(F)F)cc2Cl)cc(C(=O)O)c1` [Compound 32-1, 3-((2-chloro-4-(trifluoromethyl)phenoxy)methyl)-5-cyanobenzoic acid], for which the IC50 was found to be 0.007 µM.

For the origin of these results see patent publication US11840521B2, “Modulators of Mas-related G-protein receptor X4 and related products and methods” (Escient Pharmaceuticals, Inc., priority 2019, dated 2023).
